# Measurements reported in patent US8912186B2, “Allosteric protein kinase modulators” (Universitaet des Saarlandes, priority 2008, dated 2014).
# How the values were obtained:
# Format in all cases: biochemical
# [1] = target: T1, PDK1 (Homo sapiens, UniProt O15530); experiment: cell-free kinase activity assay (ATPgamma[32P], T308tide substrate); conditions: for activity at 50 µM / activity at 200 µM / percent of catalytic activity of the Kinase in the presence of compound as compared to the solvent control (DMSO): PDK1: DMSO control set 100%; for activity at 50 µM / activity at 200 µM: read-out: percent of catalytic activity of the Kinase in the presence of compound as compared to the solvent control (DMSO): PDK1; for max. activation of PDK1 (fold): maximum activation achievable, compared to the basal activity of PDK1
# T1 construct: GST
# T1 sequence (O15530 1-556): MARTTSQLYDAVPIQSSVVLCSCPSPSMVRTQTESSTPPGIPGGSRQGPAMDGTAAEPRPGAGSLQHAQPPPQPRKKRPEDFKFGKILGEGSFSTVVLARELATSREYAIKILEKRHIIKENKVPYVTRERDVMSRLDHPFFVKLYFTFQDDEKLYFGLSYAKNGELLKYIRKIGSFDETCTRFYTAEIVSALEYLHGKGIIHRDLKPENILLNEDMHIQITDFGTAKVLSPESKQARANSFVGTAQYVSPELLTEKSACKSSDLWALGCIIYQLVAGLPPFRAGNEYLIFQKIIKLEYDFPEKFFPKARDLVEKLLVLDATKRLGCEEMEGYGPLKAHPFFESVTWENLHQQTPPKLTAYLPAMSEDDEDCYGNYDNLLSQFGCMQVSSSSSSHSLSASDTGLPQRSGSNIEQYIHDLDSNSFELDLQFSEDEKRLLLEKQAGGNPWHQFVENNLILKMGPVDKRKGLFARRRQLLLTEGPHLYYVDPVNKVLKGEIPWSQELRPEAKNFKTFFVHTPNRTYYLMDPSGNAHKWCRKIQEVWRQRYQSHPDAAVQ
# Description: Principle of the cell-free kinase activity assay: In general, the activity of the compounds as protein kinase inhibitors or activators may be assayed in vitro (cell free assay is meant here), in vivo or in a cell line. In vitro assays include assays that determine inhibition or activation of either the phosphorylation activity or ATPase activity of the activated protein kinase. Alternate in vitro assays quantitate the ability of the inhibitor to bind to the protein kinase. Compound binding may be measured by radiolabelling the compound prior to binding, isolating the inhibitor or activator/protein kinase complex and determining the amount of radiolabel bound. Alternatively, inhibitor or activator binding may be determined by running a competition experiment where new compounds are incubated with the protein kinase bound to known radioligands. Newer methods comprise fluorescence polarisation assays and surface plasmon resonance dependent techniques. […] The activity and modulation of activity is measured using a standard ATPgamma[^32P] assay as described earlier. […] The concentration of T308tide is 1 mM and the amount of PDK1 used is 200 ng. Reactions are carried out at room temperature. Reaction is started by addition of ATP-Mg mix and stopped with phosphoric acid after 30 min. Stopped reactions were spotted on to phosphocellulose paper (P81, Whatman) and washed. After drying, the radioactivity associated to the band was quantified.
# [2] = target: S6K (Homo sapiens, UniProt P23443); experiment: cell-free kinase activity assay; conditions: DMSO control set 100%; for remaining activity at 200 µM: 200 μM compound
# [3] = target: PKA (Homo sapiens, UniProt P17612); experiment: cell-free kinase activity assay; conditions: DMSO control set 100%
# [4] = target: T2, PKCζ (Homo sapiens, UniProt Q05513); experiment: cell-free kinase activity assay; conditions: DMSO control set 100%; for percent of catalytic activity of the Kinase in the presence of compound as compared to the solvent control (DMSO): PKCζ / remaining activity at 50 µM: 50 μM compound; for remaining activity at 200 µM: 200 μM compound; for remaining activity at 200 µM / remaining activity at 50 µM: read-out: percent of catalytic activity of the Kinase in the presence of compound as compared to the solvent control (DMSO): PKCζ
# T2 sequence (Q05513 1-592): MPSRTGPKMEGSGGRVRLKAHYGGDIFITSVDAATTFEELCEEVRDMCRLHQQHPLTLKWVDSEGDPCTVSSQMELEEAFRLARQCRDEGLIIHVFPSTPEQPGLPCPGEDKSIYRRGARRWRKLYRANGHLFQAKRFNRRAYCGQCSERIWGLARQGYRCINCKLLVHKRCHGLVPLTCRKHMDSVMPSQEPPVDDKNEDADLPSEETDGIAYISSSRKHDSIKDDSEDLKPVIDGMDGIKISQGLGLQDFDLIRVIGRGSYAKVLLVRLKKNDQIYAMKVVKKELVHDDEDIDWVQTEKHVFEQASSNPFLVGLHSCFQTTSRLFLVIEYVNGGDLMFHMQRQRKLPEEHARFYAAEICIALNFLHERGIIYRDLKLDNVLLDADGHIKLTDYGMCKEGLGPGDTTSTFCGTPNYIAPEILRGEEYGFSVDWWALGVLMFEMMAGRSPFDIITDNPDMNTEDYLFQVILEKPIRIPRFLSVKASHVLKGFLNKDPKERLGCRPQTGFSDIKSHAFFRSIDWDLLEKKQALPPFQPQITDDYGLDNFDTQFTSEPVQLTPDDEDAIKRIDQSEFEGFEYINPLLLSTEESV
# [5] = target: PRK2 (Homo sapiens, UniProt Q16513); experiment: cell-free kinase activity assay; conditions: DMSO control set 100%
# [6] = target: PKBβ (Homo sapiens, UniProt P31751); experiment: cell-free kinase activity assay; conditions: DMSO control set 100%; for remaining activity at 50 µM / remaining activity at 200 µM: read-out: percent of catalytic activity of the Kinase in the presence of compound as compared to the solvent control (DMSO): PKBβ
# [7] = target: T3, SGK (Homo sapiens, UniProt O00141); experiment: cell-free kinase activity assay; conditions: DMSO control set 100%; for remaining activity at 200 µM: read-out: percent of catalytic activity of the Kinase in the presence of compound as compared to the solvent control (DMSO): SGK
# T3 sequence (O00141 1-431): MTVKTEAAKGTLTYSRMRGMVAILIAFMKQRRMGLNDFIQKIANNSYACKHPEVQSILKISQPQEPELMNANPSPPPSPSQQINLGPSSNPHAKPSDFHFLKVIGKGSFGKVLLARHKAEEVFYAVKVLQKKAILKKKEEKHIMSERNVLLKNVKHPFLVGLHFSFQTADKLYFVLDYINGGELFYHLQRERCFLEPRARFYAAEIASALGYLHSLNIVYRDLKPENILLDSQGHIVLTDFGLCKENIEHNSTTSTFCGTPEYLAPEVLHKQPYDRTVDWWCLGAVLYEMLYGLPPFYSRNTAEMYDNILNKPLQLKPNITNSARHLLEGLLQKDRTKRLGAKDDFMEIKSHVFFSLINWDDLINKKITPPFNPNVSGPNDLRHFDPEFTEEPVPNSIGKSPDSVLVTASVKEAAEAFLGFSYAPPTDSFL
# [8] = read-out: percent of catalytic activity of the Kinase in the presence of compound as compared to the solvent control (DMSO): S6K
# [9] = concentration of the compound required to activate half maximally, n.e.: no effect
# Sequence of PKBβ (P31751 whole entry, species assumed): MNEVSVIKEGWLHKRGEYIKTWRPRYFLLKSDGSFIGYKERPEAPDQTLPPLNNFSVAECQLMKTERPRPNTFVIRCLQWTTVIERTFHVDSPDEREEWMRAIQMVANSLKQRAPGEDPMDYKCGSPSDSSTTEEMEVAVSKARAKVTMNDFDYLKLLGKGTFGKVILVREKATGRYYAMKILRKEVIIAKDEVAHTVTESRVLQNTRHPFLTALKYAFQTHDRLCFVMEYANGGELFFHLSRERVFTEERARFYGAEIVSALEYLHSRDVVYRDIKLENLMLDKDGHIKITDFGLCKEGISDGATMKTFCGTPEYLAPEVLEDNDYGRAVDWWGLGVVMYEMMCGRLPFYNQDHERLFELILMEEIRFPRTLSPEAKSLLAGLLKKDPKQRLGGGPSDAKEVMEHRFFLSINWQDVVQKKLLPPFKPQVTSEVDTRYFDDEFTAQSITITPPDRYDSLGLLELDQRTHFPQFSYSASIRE
# Sequence of PRK2 (Q16513 whole entry, species assumed): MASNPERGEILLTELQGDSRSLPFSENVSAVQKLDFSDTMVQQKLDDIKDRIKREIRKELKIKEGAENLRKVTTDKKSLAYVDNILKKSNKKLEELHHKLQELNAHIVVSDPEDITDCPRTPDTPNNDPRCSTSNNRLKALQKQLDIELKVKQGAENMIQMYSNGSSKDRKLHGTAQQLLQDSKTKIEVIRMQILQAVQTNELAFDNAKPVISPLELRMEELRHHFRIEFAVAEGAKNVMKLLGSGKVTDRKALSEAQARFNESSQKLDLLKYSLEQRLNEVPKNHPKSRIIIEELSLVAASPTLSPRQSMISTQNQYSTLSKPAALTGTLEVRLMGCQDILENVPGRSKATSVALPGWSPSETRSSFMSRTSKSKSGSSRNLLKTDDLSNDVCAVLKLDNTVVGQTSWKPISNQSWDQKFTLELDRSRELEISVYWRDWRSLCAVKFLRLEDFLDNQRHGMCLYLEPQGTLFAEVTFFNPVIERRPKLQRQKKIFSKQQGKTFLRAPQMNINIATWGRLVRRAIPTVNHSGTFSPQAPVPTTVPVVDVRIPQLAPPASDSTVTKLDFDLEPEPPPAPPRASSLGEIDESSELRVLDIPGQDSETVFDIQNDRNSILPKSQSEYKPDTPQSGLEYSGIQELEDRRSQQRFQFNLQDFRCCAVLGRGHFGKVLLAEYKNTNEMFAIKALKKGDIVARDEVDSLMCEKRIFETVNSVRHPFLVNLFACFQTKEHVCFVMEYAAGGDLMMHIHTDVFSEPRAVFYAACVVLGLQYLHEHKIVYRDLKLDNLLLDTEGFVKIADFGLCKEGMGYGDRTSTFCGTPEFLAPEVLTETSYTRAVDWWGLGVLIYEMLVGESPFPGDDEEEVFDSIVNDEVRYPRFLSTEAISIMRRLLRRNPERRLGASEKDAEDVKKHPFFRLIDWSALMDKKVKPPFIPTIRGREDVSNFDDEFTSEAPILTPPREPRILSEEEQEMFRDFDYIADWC
# Sequence of S6K (P23443 whole entry): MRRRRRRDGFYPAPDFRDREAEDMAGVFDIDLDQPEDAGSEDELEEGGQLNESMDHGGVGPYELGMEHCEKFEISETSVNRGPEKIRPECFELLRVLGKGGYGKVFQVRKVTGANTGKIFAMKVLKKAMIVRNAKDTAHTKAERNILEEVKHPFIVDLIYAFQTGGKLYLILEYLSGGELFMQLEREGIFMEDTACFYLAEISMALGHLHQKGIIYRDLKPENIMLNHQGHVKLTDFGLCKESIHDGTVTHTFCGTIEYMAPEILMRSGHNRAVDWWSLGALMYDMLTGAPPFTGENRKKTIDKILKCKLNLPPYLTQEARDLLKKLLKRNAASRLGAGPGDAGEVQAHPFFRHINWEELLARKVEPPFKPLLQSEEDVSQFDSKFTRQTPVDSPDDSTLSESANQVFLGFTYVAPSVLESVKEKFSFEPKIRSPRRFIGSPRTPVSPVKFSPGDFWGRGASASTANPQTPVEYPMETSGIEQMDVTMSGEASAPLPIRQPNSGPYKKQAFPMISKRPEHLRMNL
activity at 50 µM ([1]; 50 μM compound) [%],activity at 200 µM ([1]; 200 μM compound) [%],percent of catalytic activity of the Kinase in the presence of compound as compared to the solvent control (DMSO): S6K ([2]; 50 μM compound),"remaining activity at 200 µM [2, 8] [%]",percent of catalytic activity of the Kinase in the presence of compound as compared to the solvent control (DMSO): PKA ([3]; 50 μM compound),percent of catalytic activity of the Kinase in the presence of compound as compared to the solvent control (DMSO): PKA ([3]; 200 μM compound),percent of catalytic activity of the Kinase in the presence of compound as compared to the solvent control (DMSO): PKCζ [4],remaining activity at 200 µM [4] [%],percent of catalytic activity of the Kinase in the presence of compound as compared to the solvent control (DMSO): PRK2 ([5]; 50 μM compound),percent of catalytic activity of the Kinase in the presence of compound as compared to the solvent control (DMSO): PRK2 ([5]; 200 μM compound),percent of catalytic activity of the Kinase in the presence of compound as compared to the solvent control (DMSO): PKBβ ([6]; 50 μM compound),percent of catalytic activity of the Kinase in the presence of compound as compared to the solvent control (DMSO): PKBβ ([6]; 200 μM compound),percent of catalytic activity of the Kinase in the presence of compound as compared to the solvent control (DMSO): SGK ([7]; 50 μM compound),remaining activity at 200 µM ([7]; 200 μM compound) [%],max. activation of PDK1 (fold) ([1]; n.e.: no effect),remaining activity at 50 µM [4] [%],remaining activity at 50 µM ([6]; 50 μM compound) [%],remaining activity at 200 µM ([6]; 200 μM compound) [%],Structure (SMILES),further results
~250,> 250,no effect,~50,no effect,no effect,no effect,50,no effect,no effect,no effect,no effect,no effect,~60,–,–,–,–,"O=C(O)CC(Cc1nc2cc(Cl)c(Cl)cc2[nH]1)c1ccccc1 (centres unmarked) [PS 163, 4-(5,6-Dichloro-2-benzimidazolyl)-3-phenylbutanoic acid]",–
–,–,–,25,no effect,no effect,–,0,no effect,no effect,–,–,no effect,~20,n.e.,10 to 20,90,25,"O=C(O)/C=C(/c1ccccc1)c1cc2cc(Cl)ccc2s1 [PS 118, (Z)-3-(5-Chloro-2-benzothiophenyl)-3-phenylacrylic acid]","percent of catalytic activity of the Kinase in the presence of compound as compared to the solvent control (DMSO): PDK1 ([1]; 50 μM compound): no effect; percent of catalytic activity of the Kinase in the presence of compound as compared to the solvent control (DMSO): PDK1 ([1]; 200 μM compound): no effect; AC50 PDK1 (μM) [1, 9]: n.e.; remaining activity at 50 µM ([2]; 50 μM compound, read-out: percent of catalytic activity of the Kinase in the presence of compound as compared to the solvent control (DMSO): S6K): 85%"
> 250,> 250,no effect,~60,no effect,–,–,~0,no effect,no effect,no effect,–,weak inhib.,~20,4.7 fold,~0,–,~80,"O=C(O)/C=C(/CCc1ccc(C(F)(F)F)cc1)c1ccccc1 [PS-T5, (Z)-3-Phenyl-5-[4-(trifluoromethyl)phenyl]pent-2-enoic acid]","AC50 [1, 9]: 13.8 µM; remaining activity at 200 µM ([3]; 200 μM compound, read-out: percent of catalytic activity of the Kinase in the presence of compound as compared to the solvent control (DMSO): PKA): ~60%"
300,400,no effect,~80,no effect,no effect,–,30 to 40,no effect,no effect,no effect,no effect,no effect,70 to 80,–,80,–,–,O=C(O)CC(CC(=O)N1Cc2ccc(Cl)cc2C1)c1ccc(Cl)cc1 (centres unmarked) [PS 141],–
400,500,no effect,75,no effect,no effect,no effect,30,no effect,no effect,–,–,no effect,–,–,–,85,80,"O=C(O)CC(Cc1nc2cc(Cl)ccc2[nH]1)c1ccc(Cl)cc1 (centres unmarked) [PS 114, 4-(5-Chloro-2-benzimidazolyl)-3-(4-chlorophenyl)butanoic acid]",percent of catalytic activity of the Kinase in the presence of compound as compared to the solvent control (DMSO): SGK ([7]; 200 μM compound): no effect
